From patent US6436903B1, “Immunomodulating compounds comprising d-isomers of amino acids” (Stanford University (Board of Trustees of the Leland …, priority 1996, dated 2002)
“Also recorded” adds a separate entry of the source. No end group written: not given here.

What was measured:
[1] = tested on: CD8+ CTL line specific for HLA-A2; experiment: Cytotoxicity assay: inhibition of lysis by established CTL (51Cr-labeled JY targets); format: cell-based, human
Description: CTL assays were performed as described using ^51Cr-labeled EBV transformed B cells expressing the appropriate HLA allele as targets [[…] et al., J. Immunol. (1982) 129:2001]. In the present protocol, a CD8+ CTL line specific for HLA-A2 was tested in the presence of various peptides for lysis of ^51Cr-labeled JY targets. Peptides were added to a final concentration of 100 μg/ml at the initiation of the 4 h assay. Each determination was the mean of triplicate wells.

draining lymph nodes = experiment: Lymph node proliferation assay (footpad challenge with allogeneic versus syngeneic splenocytes); format: in vivo, rat; settings: treated within 24 hours of footpad injection
Description: ACI or PVG rats (200 g) were injected intravenously with peptides dissolved in saline on day 0. On the indicated days thereafter, the left rear footpads of the rats were injected with 5×10^6 splenocytes from a syngeneic donor and the right rear footpads with 5×10^6 splenocytes from an allogeneic Lew donor (Moeller etal. Transplantation (1993)55:650). See also Twist and Barnes Transplantation (1973) 15:182; Fanslow et al. Science (1990) 248:739). Seven days after the footpad injection, the animals were sacrificed and the popliteal lymph nodes removed. A single cell suspension was prepared, and the cell number determined using a hemocytometer.
PVG or ACI rats (3 per group) were given a single intravenous injection of 2 mg of each of the four peptides or saline. On the day of treatment, or on days 1, 7, or 10 after treatment, the right footpads were injected with 5×10^6 syngeneic splenocytes while the left footpads were injected with 5×10^6 allogeneic Lew splenocytes. Seven days after the footpad injections, the draining lymph nodes were removed, a single cell suspension was prepared, and the cell number determined.

rat splenocytes = experiment: Differentiation of rat splenocytes into allospecific CTL in vitro; format: cell-based
[2] = tested on: Lew specific CTL precursors in splenocytes; experiment: Limiting dilution assay for CTL precursors in splenocytes of treated rats; format: in vivo, rat; settings: treated on the day of splenectomy or 24 hours earlier
Description: The effect of peptides on CTL precursor frequencies in splenocytes was tested as follows. Limiting dilution analysis was carried out essentially as described (Moeller et al. 1993, supra; Skinner and Marbrook. J. Exp. Med. (1976) 143:1562). Briefly, spleens were removed from naive animals or from animals that had received an allograft a minimum of 60 days earlier and then teased into a single cell suspension. Responder cells were plated from 1000 to 40,000 cells per well (24 replicates per concentration) into round bottom microliter wells in RPMI 1640 supplemented with 10% fetal bovine serum (Hyclone, Logan, Utah), 2 mM L-glutamine, 5×10^5M μ-mercaptoethanol, 100 U/ml penicillin, 100 μg/ml streptomycin, 20% supernatant from Concanavalin A activated rat spleen cells, and 50 μM α-methyl mannoside. Then, 5×10^5 irradiated (2000 rads) stimulator cells were added to each well and plates were incubated in a humidified CO2 incubator. […] Aliquots of supernatant were counted in a gamma counter and CTL precursor frequency determined by linear regression (Skinner and Marbrook. 1976, supra). […]
PVG (RT1^c) or ACI (RT1^a) rats were treated with a single intravenous injection of saline or 2 mg of A2.75-84, B7.75-84, B2702.75-84, or RT1^a.75-84 peptide. […] CTL precursor frequency was determined by linear regression analysis.

[3] = tested on: abdominal heterotopic heart allografts; experiment: Cardiac allograft survival in rats (Lew heart into ACI recipients); format: in vivo, rat; settings: peptide in the two weeks before or 4 days after surgery plus CsA on days 0-4, rats
Source text: Vascularized cardiac allografts were heterotypically transplanted into the abdomen of recipient rats using a modification of the technique of Ono and Lindsay (Ono and Lindsey J. Thorac. Cardiovasc. Surg. (1969) 57:225). Abdominal allografts were palpated on a daily basis to assess graft function, and rejection was deemed complete when palpable ventricular contractions ceased.
Cyclosporin A (CsA, Sandoz Pharmaceuticals Corporation, Base, Switzerland) dissolved in olive oil was given orally through a gavage tube at the indicated dose. Peptides were dissolved in water or saline and given intravenously or by gavage as indicated.
Since the B7.75-84 and B2702.75-84 peptides blocked cellular immunity in vivo, we examined their effects on allograft survival in rats. ACI (RT1^a) recipients were given abdominal heterotopic heart allografts from Lew donors (Moeller et al. 1993, supra; Ono and Lindsey. 1969, supra). Graft function was monitored by daily abdominal palpation, and rejection was scored as complete when the palpable ventricular contractions ceased.

purified T cells = experiment: Proliferation of purified T cells stimulated by immobilized anti-CD3; format: cell-based, human; settings: immobilized anti-CD3 antibody
Description: PBL were isolated from normal donors by centrifugation over Ficoll-Hypaque. In some cases, T cells were purified from this preparation using the method of Secrist et al. [J Exp. Med. (1993) 178:2123]. Briefly, cells isolated over Ficoll-Hypaque were incubated for 1 hour in Petri dishes. Nonadherent cells were passed over a nylon wool column and the resulting population was >90% CD3+ by FACS analysis. CD8+ CTL lines specific for HLA-A2, B7, B27, B48, or Cw4 were generated and maintained in long-term culture as previously described [Buxton et al., J Exp. Med. (1992) 175:809; Wesley et al., Hum. Immunol. (1993) 36:149]. Jurkat E6-1 and the T cell receptor negative Jurkat, JRT3-T3.5, were obtained from the American Type Culture Collection (ATCC; Rockville, Md.). […]
10^5 cells were added to microtiter wells that had been coated with anti-CD3 (Sigma, St. Louis, Mo.) at 5 μg/ml. […] Plates were harvested on a PHD Cell Harvester 24 hours later and [^3H]-thymidine incorporation determined by scintillation counting.
Peptides were evaluated for effects on the proliferation of purified T cells stimulated by immobilized anti-CD3 antibody. […]

Row | Substance | potency relative to B2702.75-84, based on the concentration required to achieve 50% inhibition of cytotoxicity [1] | ratio of the number of cells recovered, allogeneic versus syngeneic side (draining lymph nodes) | blocking of differentiation of rat splenocytes into allospecific CTL (rat splenocytes) | precursor frequency of Lew specific cells compared with saline [2] | allograft rejection under peptide in combination with CsA [3] | inhibition of proliferation of purified T cells (3H-thymidine incorporation) (purified T cells) | inhibition of lysis by established CTL ([1]; HLA-A2 specific CD8+ CTL, 51Cr-labeled JY targets, peptide 100 μg/ml, 4 h assay)
1 | WDRETQICKAKAQTDRENLRIALRY [Peptide B2702.60-84] | approximately 5 fold | – | – | – | – | – | –
2 | B2702.75-84: synthetic peptide, HLA-B2702 residues 75-84, sequence RENLRIALRY [Peptide B2702.75-84] | – | A similar ratio | blocked the differentiation of rat splenocytes into allospecific CTL in vitro | The same frequency | rejected similarly to allografts in animals treated with CsA alone; also recorded: did not show prevention of allograft rejection | do not | inhibited lysis by established CTL
